Assay results taken from patent US8822435B2, “Bisphosphonate compounds” (Warner Chilcott Company, LLC, priority 2009, dated 2014).
Values joined by “and” are separate entries in the source; they are usually repeats but may differ in a detail not shown here. Identical values can stand only once.

Legend:
[1] = Urinary recovery of cyclic acetal and conversion to bisphosphonate after IV administration to rats; assay type: in vivo, rat; details: for dosed cyclic acetal converted to risedronate: male, Sprague-Dawley
Protocol: (§1) Male, Sprague-Dawley, rats weighing approximately 200-400 g were studied.
(§2) All formulations were prepared within approximately 1 hour of dosing.
Generally, animals were administered a 1.7 micromole/kg, 2 ml/kg IV dose (tail vein) of the appropriate formulation using a syringe and attached butterfly needle. All animals remained fasted for an additional 4 hours post dose and were returned to ad libitum access to food thereafter.
(§3) Urine samples were collected into refrigerated plastic conical tubes at approximately 4, 8 and 24 hours post-dose. At the end of each collection period, samples were weighed and transferred to a −70° C. freezer for storage until analyzed.
The absorbed risedronate is stable in vivo and is not metabolized. After IV administration of risedronate to rats, about 60% of risedronate binds to bone and about 40% of risedronate dosed is excreted in urine. When risedronate cyclic acetal compounds are administered intravenously to rats, a percentage of the cyclic acetal can remain intact and can be excreted in urine while a percentage of the cyclic acetal can be converted to risedronate in vivo. Assuming risedronate formed in vivo has the similar tissue distribution profile as described above, about 40% of risedronate generated in vivo will be excreted in urine and about 60% of risedronate generated in vivo will bind to bone. Thus, the percentage of the cyclic acetal which is converted to risedronate in vivo is estimated using Formula A: […]
Risedronate cyclic acetal compounds were administered intravenously in saline (0.9% sodium chloride).

[2] = test system: Sprague Dawley rats (Schenk Model); experiment: Schenk Model: bone mineral density of proximal tibial metaphysis by DXA; assay type: in vivo, rat; details: for D20, 20% > BMD than control / LED (lowest effective dose): SQ once daily for 7 days, rats; for D20, 20% > BMD than control: logistic dose response relationship; for LED (lowest effective dose): significant anti-resorptive dose vs control; for bone density in the rat proximal tibial metaphysis: Schenk Model
Protocol: The effect of the compounds (Example 62 (trans) and Example 128) on in vivo bone resorption inhibition and mineralization inhibition was evaluated in the Schenk Model, an animal model system known in the field of bone metabolism. The general principles of this model are disclosed in Shinoda et al., Calcif. Tissue Int., 35: 87-99 (1983); and in Schenk et al., Calcif: Tissue Res. 11: 196-214 (1973).
Male Sprague Dawley rats approximately 6 weeks old with weights ranging between 120 and 150 grams were placed into groups based on body weight, with 4-8 animals per group. All groups received treatment by subcutaneous injection (SQ) once daily for 7 days.
On day 7 after the start of dosing, all animals were euthanized via exsanguination under gas anesthesia and/or CO2. The right tibia and femur were dissected free and placed in 70% ethyl alcohol.
The proximal metaphysis of the right tibia was analyzed using dual energy x-ray absorptiometry (DXA). This provides information on changes in both cortical and cancellous bone density. The primary end-point for this study was bone mineral density (BMD) in the tibia measured using Hologics QDR-4500 densitometer (Hologics, Inc). Statistical evaluation of data was made using parametric and non-parametric analysis of variance and Fisher's protected t-test to determine a statistically significant effect compared to control animals, defined as the lowest effective (significant anti-resorptive) dose (LED).
The dose which increased (BMD) 20% compared to the vehicle group (D20) was calculated via a logistic dose response relationship, which estimates an efficacy value using all animals in the study (Lundy et al., J. Bone Min. Res. 22 (Suppl. 1): S443, (2007)).

[3] = Urinary recovery / risedronate exposure after intraduodenal (ID) and oral (PO) administration to fasted and fed rats; assay type: in vivo, rat; details: for Amount Excreted: Risedronate (risedronate administered): dose 17 micromole/kg, rats
Protocol: as §1, §2
The appropriate test article formulation was administered to each animal as a 17 micromole/kg, 2 mL/kg dose solution in 0.6% methylcellulose/0.2% Tween 80® by oral gavage. Alternatively, animals were dosed with a 17 micromole/kg, 1 mL/kg dose solution in saline through a cannula into the duodenum. Animals in the fasted groups were fasted for approximately 4 hours after dosing and were returned to ad libitum access to food thereafter. Animals in the fed groups had access to food ad libitum for at least 2 hours prior to dosing, and throughout the day post dose.
as §3
Example 62 (trans) and risedronate were administered via intraduodenal (ID) and oral administration to fasted and fed rats. Similar to the procedure described above in relation to the IV study, the urine of the rats was collected, and risedronate was recovered from urine. Risedronate exposure following ID and oral administration was calculated as percentage of the recovered risedronate from the dosed cyclic acetal (Formula A), and the results were compared to that from dosing with risedronate, See Table 4.

[4] = Solubility in water (remark in synthesis example); assay type: physicochemical; details: calcium salt
[5] = IV, dose 1.7 micromole/kg, rats, % CV in parentheses
[6] = after IV administration of risedronate to rats

O=C(Cc1ccccc1)Oc1ccc(C2OP(=O)(O)C(O)(Cc3cccnc3)P(=O)(O)O2)cc1 (centres unmarked) [Example 79]
urinary recovery of the cyclic acetal ([1]; IV, rats, rapid rate of conversion to risedronate in vivo): very low

O=C(Cc1ccccc1)Oc1ccc(C2OP(=O)(O)C(O)(Cc3cccnc3)P(=O)(O)O2)cc1 (stereo not drawn) [Example 79 (trans)]
Amount of Cyclic Acetal Excreted [1, 5]: 0.3 (220) % of administered dose excreted in urine

CC(C)OC(=O)Oc1ccccc1C1OP(=O)(O)C(O)(Cc2cccnc2)P(=O)(O)O1 (stereo not drawn) [Example 62 (trans)]
risedronate release rate into the bloodstream vs risedronate ([1]; rat, in vivo, iv): slower
systemic exposure of cyclic acetal and risedronate ([1]; rat, in vivo, iv): both systemic exposure of the cyclic acetal and risedronate
D20, 20% > BMD than control [2]: 5 mcg P/kg
LED (lowest effective dose) [2]: 3 mcg P/kg
bone density in the rat proximal tibial metaphysis [2]: efficacious

CCCC(=O)Oc1ccc(C2OP(=O)(O)C(O)(Cc3cccnc3)P(=O)(O)O2)cc1 (centres unmarked) [Example 29]
dosed cyclic acetal converted to risedronate ([1]; rat, in vivo, iv): > 100%
urinary recovery of the cyclic acetal ([1]; rat, in vivo, iv): very low

COC(=O)Oc1ccccc1C1OP(=O)(O)C(O)(Cc2cccnc2)P(=O)(O)O1 (stereo not drawn) [Example 50 (trans)]
systemic exposure of cyclic acetal and risedronate ([1]; rat, in vivo, iv): both systemic exposure of the cyclic acetal and risedronate

CCCC(=O)Oc1ccccc1C1OP(=O)(O)C(O)(Cc2cccnc2)P(=O)(O)O1 (centres unmarked) [Example 105]
urinary recovery of the cyclic acetal ([1]; rat, in vivo, iv): very low

CCCC(=O)Oc1ccc(C2OP(=O)(O)C(O)(Cc3cccnc3)P(=O)(O)O2)cc1F (centres unmarked) [Example 30]
urinary recovery of the cyclic acetal ([1]; rat, in vivo, iv): very low

O=C1OCCN1C(=O)Oc1ccccc1C1OP(=O)(O)C(O)(Cc2cccnc2)P(=O)(O)O1 (centres unmarked) [Example 82]
dosed cyclic acetal converted to risedronate ([1]; rat, in vivo, iv): 43%

O=P(O)(O)C(O)(Cc1cccnc1)P(=O)(O)O [Risedronate, risedronate, reference compound]
Amount Excreted: Risedronate (risedronate administered) [1, 5]: 36 (13) % of administered dose excreted in urine and 39 % of administered dose excreted in urine
risedronate binds to bone [1, 6]: about 60%
risedronate dosed excreted in urine [1, 6]: about 40%
Amount Excreted: Risedronate (risedronate administered) ([3]; ID fed, % CV in parentheses): 0.012 (50) % of administered dose excreted in urine
Amount Excreted: Risedronate (risedronate administered) ([3]; Oral fast): 0.13 % of administered dose excreted in urine
Amount Excreted: Risedronate (risedronate administered) ([3]; Oral fed): 0.003 % of administered dose excreted in urine
risedronate exposure with food compared to fasted rats ([3]; fed rats): extensive reduction
risedronate exposure as estimated by urinary recovery ([3]; orally to fasted rats): less than 1 % of dose
D20, 20% > BMD than control [2]: 1.8 mcg P/kg
LED (lowest effective dose) [2]: 1 mcg P/kg

CC(C)OC(=O)Oc1ccc(C2OP(=O)(O)C(O)(Cc3cccnc3)P(=O)(O)O2)c(F)c1 (centres unmarked) [Example 63]
urinary recovery of the cyclic acetal ([1]; rat, in vivo, iv): very low

CC(C)OC(=O)Oc1ccccc1C1OP(=O)(O)C(O)(Cn2ccnc2)P(=O)(O)O1 (centres unmarked) [Example 128, Carbonic acid isopropyl ester 2-(2,3,4-trihydroxy-3-imidazol-1-ylmethyl-2,4-dioxo-2λ^5,4λ^5-[1,5,2,4]dioxadiphosphinan-6-yl)-phenyl ester]
D20, 20% > BMD than control [2]: 0.5 mcg P/kg
LED (lowest effective dose) [2]: 1 mcg P/kg
bone density in the rat proximal tibial metaphysis [2]: efficacious

CC1(C)CN(C(=O)Oc2cc(F)c(C3OP(=O)(O)C(O)(Cc4cccnc4)P(=O)(O)O3)c(F)c2)C(=O)O1 (centres unmarked) [Example 83]
urinary recovery of the cyclic acetal ([1]; rat, in vivo, iv): very low

O=C(Oc1c(F)cccc1C1OP(=O)(O)C(O)(Cc2cccnc2)P(=O)(O)O1)N1CCOCC1 (centres unmarked) [Example 53]
solubility in water [4]: very low

CC(=O)Oc1ccc(C2OP(=O)(O)C(O)(Cc3cccnc3)P(=O)(O)O2)cc1 (centres unmarked) [Example 28]
urinary recovery of the cyclic acetal ([1]; rat, in vivo, iv): very low

CC(C)C(=O)Oc1ccc(C2OP(=O)(O)C(O)(Cc3cccnc3)P(=O)(O)O2)cc1 (stereo not drawn) [Example 33 (trans)]
urinary recovery of the cyclic acetal ([1]; rat, in vivo, iv): very low

CCOC(=O)Oc1ccc(C2OP(=O)(O)C(O)(Cc3cccnc3)P(=O)(O)O2)cc1 (centres unmarked) [Example 36]
systemic exposure of cyclic acetal and risedronate ([1]; rat, in vivo, iv): both systemic exposure of the cyclic acetal and risedronate

CC(C)=CC(=O)Oc1ccc(C2OP(=O)(O)C(O)(Cc3cccnc3)P(=O)(O)O2)cc1F (centres unmarked) [Example 47]
urinary recovery of the cyclic acetal ([1]; rat, in vivo, iv): very low

O=P(O)(O)C(O)(Cn1ccnc1)P(=O)(O)O [Zoledronic acid, (1-hydroxy-2-imidazol-1-yl)-ethyl-1,1-bisphosphonic acid, reference compound]
D20, 20% > BMD than control [2]: 0.1 mcg P/kg
LED (lowest effective dose) [2]: 0.1 mcg P/kg
